For the first assay, the target named is T1, purified recombinant human Aggrecanase-2 (Agg2-Phe628) (Homo sapiens, UniProt Q9UNA0).
T1 construct: (Agg2-Phe628) (MW=41,737), which is a truncated form of full-length human aggrecanase-2; made in house; host or cells: CHO cells
T1 sequence (Q9UNA0 262-628 limits assumed): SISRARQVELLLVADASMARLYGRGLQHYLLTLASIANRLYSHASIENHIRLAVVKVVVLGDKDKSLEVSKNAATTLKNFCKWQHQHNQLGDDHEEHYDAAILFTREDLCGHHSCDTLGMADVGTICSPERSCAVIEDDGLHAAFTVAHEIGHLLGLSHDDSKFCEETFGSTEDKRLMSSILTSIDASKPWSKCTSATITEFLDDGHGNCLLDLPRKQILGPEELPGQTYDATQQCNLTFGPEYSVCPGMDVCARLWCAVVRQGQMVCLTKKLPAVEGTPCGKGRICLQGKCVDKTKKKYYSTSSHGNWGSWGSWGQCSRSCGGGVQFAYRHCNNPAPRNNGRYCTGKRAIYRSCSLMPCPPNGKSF
In words: Aggrecanase 2 continuous in vitro fluorescence assay. It is filed as biochemical. To be noted: Agg2-Phe628 0.5 μg/ml, substrate 25 μM, 30° C.; read-out: IC50.
Method: A continuous vitro fluorescence assay was employed, wherein the enzyme used in the assay was a purified recombinant human Aggrecanase-2 (Agg2-Phe628) (MW=41,737), which is a truncated form of full-length human aggrecanase-2 that was expressed in CHO cells and purified prior to use. The final concentration of Agg2-Phe628 was 0.5 μg/ml. The buffer used in this assay was 50 mM HEPES, pH 7.5, 100 mM NaCl, 5 mM CaCl2, 0.1% CHAPS, 5% glycerol. The substrate used in the assay was a synthetic peptide having the sequence ABz-[sequence]-Dap(Dnp)-KK—NH2 (>95% pure by HPLC, AnaSpec, Inc.), wherein Abz refers to ortho-aminobenzyl, a fluorescent group which is quenched by energy transfer to a 2,4-dinitrophenyl group. The final concentration of substrate in the assay was 25 μM and was spectrophotometrically determined using the extinction coefficient at 354 nm of 18,172 M^−1cm^−1. The Vmax and Km for this enzyme/substrate reaction were determined to be insensitive to DMSO up to at least 10% (v/v).
The total reaction volume was 100 μl. The buffer and enzyme were added first followed by addition of 10× inhibitor from the dilution plate. Separate enzyme and buffer samples were included in order to obtain the maximal rate of substrate cleavage. The reaction was allowed to stand at 30° C. for 15 minutes, then substrate was added, the resultant solution was mixed. The resultant reaction was allowed to progress, with monitoring, for 40 minutes at 30° C. in kinetic mode using λex: 340 nm and λem: 420 (GeminiXS Molecular Devices).
The fluorescence intensity is linear during the time of data collection. The slope of the line (Vmax/sec) represents the initial reaction rate, ν. The maximal rate of cleavage of substrate was determined in the absence of inhibitor. The percent inhibition of activity in the presence of inhibitor was calculated using the following equation:
% inhibition=(1−ν(RFU/sec))/Maximal Rate(RFU/sec))*100
The IC50 was obtained by fitting the initial rate, ν or % inhibition at each concentration of inhibitor to the following equation:
This model describes a sigmoidal curve with an adjustable baseline, wherein:
y is the % inhibition or initial rate of reaction;
C is the concentration of inhibitor under test;
a is the limiting response as C approaches zero. As C increases without bound y tends toward its lower limit, d;
y is halfway between the lower and upper asymptotes when C=IC50; and
n is the Hill coefficient. The sign of n is positive when the response increases with increasing dose and is negative when the response decreases with increasing dose (inhibition).
One may read the IC50 as the concentration at which inhibition is half-maximal. Consider `CCCC(=O)N1C(=O)C2(NN=C(c3ccc(OC)cc3)S2)c2cc(CC)ccc21` (stereo not drawn) [Compound 46, 1-butyryl-5-ethyl-5′-(4-methoxyphenyl)-3′H-spiro[indole-3,2′-[1,3,4]thiadiazol]-2(1H)-one], for which the concentration for half-maximal inhibition (IC50) is 1520 nM.
On the same count and under the same terms, in the case of “ethyl [5′-(4-methoxyphenyl)-2-oxo-3′H-spiro[indole-3,2′-[1,3,4]thiadiazol]-1(2H)-yl]acetate [Compound 9]” it was 3680 nM.
The same measure, in the same setting: then `CCc1ccc2c(c1)C1(NN=C(c3cccc(OC)c3)S1)C(=O)N2` (stereo not drawn) [Compound 30, 5-ethyl-5′-(3-methoxyphenyl)-3′H-spiro[indole-3,2′-[1,3,4]thiadiazol]-2(1H)-one], with 5930 nM.
For the compound `COc1ccc(C2=NNC3(S2)C(=O)Nc2c(C)cc(C)cc23)cc1` (stereo not drawn) [Compound 1, 5′-(4-methoxyphenyl)-5,7-dimethyl-3′H-spiro[indole-3,2′-[1,3,4]thiadiazol]-2(1H)-one], the half-inhibitory concentration (IC50) came out at 3060 nM.
On the same count and under the same terms, in the case of `COc1ccc(C2=NNC3(S2)C(=O)Nc2ccc(C)cc23)cc1` (stereo not drawn) [Compound 5, 5′-(4-methoxyphenyl)-5-methyl-3′H-spiro[indole-3,2′-[1,3,4]thiadiazol]-2(1H)-one] it was 2530 nM; in that of `CCCC(=O)N1C(=O)C2(NN=C(c3ccc(C)cc3)S2)c2cc(CC)ccc21` (stereo not drawn) [Compound 45, 1-butyryl-5-ethyl-5′-(4-methylphenyl)-3′H-spiro[indole-3,2′-[1,3,4]thiadiazol]-2(1H)-one], 1450 nM.
Still for that read-out and setting: in the case of `C#CCN1C(=O)C2(NN=C(c3ccc(OC)cc3)S2)c2ccccc21` (stereo not drawn) [Compound 7, 5′-(4-methoxyphenyl)-1-prop-2-yn-1-yl-3′H-spiro[indole-3,2′-[1,3,4]thiadiazol]-2(1H)-one] it was 2470 nM.
On the same count and under the same terms, in the case of `Cc1ccc(C2=NNC3(S2)C(=O)N(Cc2ccccc2)c2ccc(C)cc23)cc1` (stereo not drawn) [Compound 33, 1-benzyl-5-methyl-5′-(4-methylphenyl)-3′H-spiro[indole-3,2′-[1,3,4]thiadiazol]-2(1H)-one] it was 612 nM; in that of `COc1ccc(C2=NNC3(S2)C(=O)N(c2ccc(Cl)cc2)c2ccc(C)cc23)cc1` (stereo not drawn) [Compound 25, 1-(4-chlorophenyl)-5′-(4-methoxyphenyl)-5-methyl-3′H-spiro[indole-3,2′-[1,3,4]thiadiazol]-2(1H)-one], 1480 nM; in that of `O=C1Nc2cc(F)c(F)cc2C12NN=C(c1ccccc1)S2` (stereo not drawn) [Compound 39, 5,6-difluoro-5′-phenyl-3′H-spiro[indole-3,2′-[1,3,4]thiadiazol]-2(1H)-one], 14300 nM.
On to `COc1ccc(C2=NNC3(S2)C(=O)Nc2cc(Cl)ccc23)cc1` (stereo not drawn) [Compound 12, 6-chloro-5′-(4-methoxyphenyl)-3′H-spiro[indole-3,2′-[1,3,4]thiadiazol]-2(1H)-one], for which the concentration for half-maximal inhibition (IC50) amounted to 1190 nM.
On to `CCCc1ccc2c(c1)N(Cc1ccccc1)C(=O)C21NN=C(c2ccc(OC)cc2)S1` (stereo not drawn) [Compound 28, 1-benzyl-5′-(4-methoxyphenyl)-6-propyl-3′H-spiro[indole-3,2′-[1,3,4]thiadiazol]-2(1H)-one], for which the half-inhibitory concentration (IC50) turned out to be 950 nM.
Regarding `COc1ccc(C2=NNC3(S2)C(=O)Nc2ccccc23)cc1` (stereo not drawn) [Compound 3, 5′-(4-methoxyphenyl)-3′H-spiro[indole-3,2′-[1,3,4]thiadiazol]-2(1H)-one], the IC50 stood at 13400 nM.
Same read-out and setting: in the case of `COc1ccc(C2=NNC3(S2)C(=O)N(c2ccc(Cl)c(Cl)c2)c2ccc(C)cc23)cc1` (stereo not drawn) [Compound 26, 1-(3,4-dichlorophenyl)-5′-(4-methoxyphenyl)-5-methyl-3′H-spiro[indole-3,2′-[1,3,4]thiadiazol]-2(1H)-one] it was 1260 nM.
Regarding `CC(=O)N1C(=O)C2(NN=C(c3ccccc3)S2)c2ccccc21` (stereo not drawn) [Compound 56, 1-acetyl-5′-phenyl-3′H-spiro[indoline-3,2′-[1,3,4]thiadiazol]-2-one], the IC50 worked out at 12500 nM.
With `O=C1Nc2ccc(OC(F)(F)F)cc2C12NN=C(c1ccccc1)S2` (stereo not drawn) [Compound 31, 5′-phenyl-5-(trifluoromethoxy)-3′H-spiro[indole-3,2′-[1,3,4]thiadiazol]-2(1H)-one], the half-inhibitory concentration (IC50) is 7220 nM.
On the same count and under the same terms, then `Cc1ccc(C2=NNC3(S2)C(=O)N(c2ccccc2C)c2ccc(C)cc23)cc1` (stereo not drawn) [Compound 32, 5-methyl-1-(2-methylphenyl)-5′-(4-methylphenyl)-3′H-spiro[indole-3,2′-[1,3,4]thiadiazol]-2(1H)-one], with 1220 nM; and `CCc1ccc2c(c1)C1(NN=C(c3ccc(F)cc3)S1)C(=O)N2` (stereo not drawn) [Compound 43, 5-ethyl-5′-(4-fluorophenyl)-3′H-spiro[indole-3,2′-[1,3,4]thiadiazol]-2(1H)-one], with 2960 nM.
Regarding `CCN1C(=O)C2(NN=C(c3ccc(OC)cc3)S2)c2cc(F)c(N3CCN(C)CC3)cc21` (stereo not drawn) [Compound 21, 1-ethyl-5-fluoro-5′-(4-methoxyphenyl)-6-(4-methylpiperazin-1-yl)-3′H-spiro[indole-3,2′-[1,3,4]thiadiazol]-2(1H)-one], the half-inhibitory concentration (IC50) was found to be 5420 nM.
Still for that read-out and setting: then `CCc1ccc2c(c1)C1(NN=C(c3ccc(C(C)(C)C)cc3)S1)C(=O)N2` (stereo not drawn) [Compound 44, 5′-(4-tert-butylphenyl)-5-ethyl-3′H-spiro[indole-3,2′-[1,3,4]thiadiazol]-2(1H)-one], with 1660 nM; and `COc1ccc(C2=NNC3(S2)C(=O)Nc2ccc(OC)cc23)cc1` (stereo not drawn) [Compound 6, 5-methoxy-5′-(4-methoxyphenyl)-3′H-spiro[indole-3,2′-[1,3,4]thiadiazol]-2(1H)-one], with over 2500 nM; and `COc1ccc(C2=NNC3(S2)C(=O)Nc2c(C)cccc23)cc1` (stereo not drawn) [Compound 18, 5′-(4-methoxyphenyl)-7-methyl-3′H-spiro[indole-3,2′-[1,3,4]thiadiazol]-2(1H)-one], with 3750 nM.
The same measure, in the same setting: then `COc1ccc(C2=NNC3(S2)C(=O)N(C)c2ccccc23)cc1` (stereo not drawn) [Compound 2, 5′-(4-methoxyphenyl)-1-methyl-3′H-spiro[indole-3,2′-[1,3,4]thiadiazol]-2(1H)-one], with over 7000 nM; and `COc1ccc(C2=NNC3(S2)C(=O)N(c2cccc([N+](=O)[O-])c2)c2ccc(C)cc23)cc1` (stereo not drawn) [Compound 27, 5′-(4-methoxyphenyl)-5-methyl-1-(3-nitrophenyl)-3′H-spiro[indole-3,2′-[1,3,4]thiadiazol]-2(1H)-one], with 995 nM.
Same read-out and setting: in the case of `C=CCN1C(=O)C2(NN=C(c3ccccc3)S2)c2ccccc21` (stereo not drawn) [Compound 41, 1-allyl-5′-phenyl-3′H-spiro[indole-3,2′-[1,3,4]thiadiazol]-2(1H)-one] it was 4880 nM; in that of `O=C1N(c2ccccc2)c2ccccc2C12NN=C(c1ccccc1)S2` (stereo not drawn) [Compound 38, 1,5′-diphenyl-3′H-spiro[indole-3,2′-[1,3,4]thiadiazol]-2(1H)-one], 2620 nM.
For `O=C1Nc2ccccc2C12NN=C(c1ccccc1)S2` (stereo not drawn) [Compound 53, 5′-phenyl-3′H-spiro[indoline-3,2′-[1,3,4]thiadiazol]-2-one], the IC50 is 30000 nM.

The same assay, now with this note: inhibitor concentration not given.
In general, % Inhibition refers to the share of the control response that was lost under treatment. As to `COc1ccc(C2=NNC3(S2)C(=O)N(c2ccc(C)cc2)c2ccc(C)cc23)cc1` (stereo not drawn) [Compound 24, 5′-(4-methoxyphenyl)-5-methyl-1-(4-methylphenyl)-3′H-spiro[indole-3,2′-[1,3,4]thiadiazol]-2(1H)-one], the “% Inhibition” value worked out at 39%.
The same measure, in the same setting: in the case of `Cc1ccc(C2=NNC3(S2)C(=O)N(C)c2ccccc23)cc1` (stereo not drawn) [Compound 51, 1-methyl-5′-(4-methylphenyl)-3′H-spiro[indole-3,2′-[1,3,4]thiadiazol]-2(1H)-one] it was 4.6%; in that of “1-[2-(dimethylamino)ethyl]-5′-(4-methoxyphenyl)-3′H-spiro[indole-3,2′-[1,3,4]thiadiazol]-2(1H)-one [Compound 11]”, 30%; in that of `CCc1ccc2c(c1)C1(NN=C(c3ccc(C)cc3)S1)C(=O)N2` (stereo not drawn) [Compound 48, 5-ethyl-5′-(4-methylphenyl)-3′H-spiro[indole-3,2′-[1,3,4]thiadiazol]-2(1H)-one], 1.9%.
`O=C1Nc2c(Cl)ccc(Cl)c2C12NN=C(c1ccccc1)S2` (stereo not drawn) [Compound 40, 4,7-dichloro-5′-phenyl-3′H-spiro[indole-3,2′-[1,3,4]thiadiazol]-2(1H)-one]: the “% Inhibition” value is 39%.
Consider `CCc1ccc2c(c1)C1(NN=C(c3ccccc3)S1)C(=O)N2` (stereo not drawn) [Compound 47, 5-ethyl-5′-phenyl-3′H-spiro[indole-3,2′-[1,3,4]thiadiazol]-2(1H)-one], for which the “% Inhibition” value is on record as 9.6%.
Turning to `Cc1ccc(C2=NNC3(S2)C(=O)Nc2ccccc23)cc1` (stereo not drawn) [Compound 50, 5′-(4-methylphenyl)-3′H-spiro[indole-3,2′-[1,3,4]thiadiazol]-2(1H)-one], the “% Inhibition” value is 3.7%.
For `COc1ccc2c(c1)C1(NN=C(c3ccccc3)S1)C(=O)N2` (stereo not drawn) [Compound 35, 5-methoxy-5′-phenyl-3′H-spiro[indole-3,2′-[1,3,4]thiadiazol]-2(1H)-one], the “% Inhibition” value was determined as 41%.

Staying with this assay, now noted: positive control at 10 nM.
The term inhibition denotes the change of the read-out against control, counted positive when it falls. Regarding `CNC(=O)[C@H](Cc1ccccc1)NC(=O)[C@H](CC(C)C)[C@H](CSc1cccs1)C(=O)NO` [N2-{(2R)-2-[(1S)-1-Hydroxycarbamoyl-2-(thiophen-2-ylsulfanyl)-ethyl]-4-methyl-pentanoyl}-N-methyl-L-phenylalaninamide, reference compound], the inhibition at 0.01 µM came to 40%.

Still in this assay, the particulars now being: positive control at 20 nM.
Regarding `CNC(=O)[C@H](Cc1ccccc1)NC(=O)[C@H](CC(C)C)[C@H](CSc1cccs1)C(=O)NO` [N2-{(2R)-2-[(1S)-1-Hydroxycarbamoyl-2-(thiophen-2-ylsulfanyl)-ethyl]-4-methyl-pentanoyl}-N-methyl-L-phenylalaninamide, reference compound], the inhibition at 0.02 µM amounted to 60%.

The same assay, now with this note: positive control at 200 nM.
In the case of `CNC(=O)[C@H](Cc1ccccc1)NC(=O)[C@H](CC(C)C)[C@H](CSc1cccs1)C(=O)NO` [N2-{(2R)-2-[(1S)-1-Hydroxycarbamoyl-2-(thiophen-2-ylsulfanyl)-ethyl]-4-methyl-pentanoyl}-N-methyl-L-phenylalaninamide, reference compound], the inhibition at 0.2 µM was 100%.

The same assay, now with this note: positive control; read-out: Agg2 IC50.
Consider `CNC(=O)[C@H](Cc1ccccc1)NC(=O)[C@H](CC(C)C)[C@H](CSc1cccs1)C(=O)NO` [N2-{(2R)-2-[(1S)-1-Hydroxycarbamoyl-2-(thiophen-2-ylsulfanyl)-ethyl]-4-methyl-pentanoyl}-N-methyl-L-phenylalaninamide, reference compound], for which the IC50 is 36 nM.

For the origin of these results see US20080125469A1, “Thiadiazole compounds and methods of use thereof” (Wyeth, priority 2006, published 2008).
